This assay addresses Glutamate--tRNA ligase (Escherichia coli) (UniProt P04805). As to the kind of experiment: Compound was tested for the inhibition of Escherichia coli glutamyl-t-RNA synthetase; NI means No inhibition.

Sequence of Glutamate--tRNA ligase (Escherichia coli) (P04805 whole entry, looked up): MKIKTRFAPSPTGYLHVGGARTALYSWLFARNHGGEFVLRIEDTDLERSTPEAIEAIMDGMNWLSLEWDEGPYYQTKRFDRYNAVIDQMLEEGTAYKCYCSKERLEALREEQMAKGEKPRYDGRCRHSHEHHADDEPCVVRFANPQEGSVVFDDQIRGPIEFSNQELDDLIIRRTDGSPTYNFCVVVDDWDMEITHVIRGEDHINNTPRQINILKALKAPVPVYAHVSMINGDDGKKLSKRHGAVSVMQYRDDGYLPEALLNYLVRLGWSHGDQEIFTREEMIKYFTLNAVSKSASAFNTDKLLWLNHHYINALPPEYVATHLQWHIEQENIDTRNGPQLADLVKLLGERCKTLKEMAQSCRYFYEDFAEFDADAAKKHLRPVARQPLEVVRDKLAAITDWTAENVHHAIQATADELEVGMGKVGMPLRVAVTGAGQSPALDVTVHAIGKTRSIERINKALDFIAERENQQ

Consider `CCCCCCCCOC(=O)C(N)CCC(=O)O` (stereo unspecified), for which the Ki entry is given as “Not Active”.

The values above are taken from ChEMBL document CHEMBL1130528, “Synthesis of inhibitors of glutamyl-tRNA synthetase” (Bioorg Med Chem Lett, 1997).
